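Where inhibition never reached the appropriate level, the endpoint shown equals the highest concentration tested. Otherwise, values were interpolated linearly from a five-concentration, 48-hour dose response in 96-well plates. The concentration for 50% growth inhibition is given as GI50.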 Active and inactive are the calls of the source. Cut-off read from the data, not from the text of the source: active = GI50 up to about 1.1 µM and inactive = higher.
Experiments:
Assay in all cases: growth of human tumour cells (NCI), 48 h
SK-MEL-28 = system: SK-MEL-28
HCT-15 = system: HCT-15
OVCAR-8 = system: OVCAR-8
SNB-19 = system: SNB-19
SN12C = system: SN12C
NCI-H460 = system: NCI-H460
SF-295 = system: SF-295
SW-620 = system: SW-620
OVCAR-4 = system: OVCAR-4
HOP-62 = system: HOP-62
SF-539 = system: SF-539
HL-60 = system: HL-60
UACC-257 = system: UACC-257
LOX IMVI = system: LOX IMVI
COLO 205 = system: COLO 205
HCC 2998 = system: HCC 2998
TK-10 = system: TK-10

Compound | GI50 (SK-MEL-28) | GI50 (HCT-15) [µM] | GI50 (OVCAR-8) | GI50 (SNB-19) | GI50 (SN12C) | GI50 (NCI-H460) | GI50 (SF-295) | GI50 (SW-620) | GI50 (OVCAR-4) | GI50 (HOP-62) | GI50 (SF-539) | GI50 (HL-60) | GI50 (UACC-257) | GI50 (LOX IMVI) | GI50 (COLO 205) | GI50 (HCC 2998) | GI50 (TK-10)
O=[N+]([O-])c1ccc(Sc2c3ccccc3nc3ccccc23)cc1 | > 100 µM (inactive) | > 100 | > 100 µM (inactive) | > 100 µM (inactive) | > 100 µM (inactive) | > 100 µM (inactive) | > 100 µM (inactive) | > 100 µM (inactive) | > 100 µM (inactive) | > 100 µM (inactive) | > 100 µM (inactive) | 46.5 µM (inactive) | > 100 µM (inactive) | > 100 µM (inactive) | > 100 µM (inactive) | > 100 µM (inactive) | –
O=C(/C=C(\O)C(=O)O)/C=C(\O)c1ccc(Cl)cc1 | > 100 µM (inactive) | > 100 | > 100 µM (inactive) | > 100 µM (inactive) | > 100 µM (inactive) | > 100 µM (inactive) | > 100 µM (inactive) | > 100 µM (inactive) | > 100 µM (inactive) | > 100 µM (inactive) | > 100 µM (inactive) | > 100 µM (inactive) | > 100 µM (inactive) | > 100 µM (inactive) | > 100 µM (inactive) | > 100 µM (inactive) | > 100 µM (inactive)
COC(=O)C(=O)C(C(=O)C=C(C)C)C(=O)C(=O)Nc1cc(C(F)(F)F)ccc1Cl (stereo not given) | > 100 µM (inactive) | > 100 | > 100 µM (inactive) | > 100 µM (inactive) | > 100 µM (inactive) | > 100 µM (inactive) | > 100 µM (inactive) | – | > 100 µM (inactive) | > 100 µM (inactive) | > 100 µM (inactive) | > 100 µM (inactive) | 70.3 µM (inactive) | 46.9 µM (inactive) | 52.2 µM (inactive) | > 100 µM (inactive) | > 100 µM (inactive)
O=C1c2ccccc2C(=O)C1(Cl)C1(S(=O)(=O)O)c2ccccc2-c2ccccc21 | > 100 µM (inactive) | > 100 | > 100 µM (inactive) | – | > 100 µM (inactive) | > 100 µM (inactive) | > 100 µM (inactive) | > 100 µM (inactive) | > 100 µM (inactive) | > 100 µM (inactive) | > 100 µM (inactive) | > 100 µM (inactive) | > 100 µM (inactive) | > 100 µM (inactive) | > 100 µM (inactive) | > 100 µM (inactive) | > 100 µM (inactive)
CCN(CC)C(=O)CNC(=O)OC(C)(C)C | > 100 µM (inactive) | > 100 | > 100 µM (inactive) | > 100 µM (inactive) | > 100 µM (inactive) | > 100 µM (inactive) | > 100 µM (inactive) | > 100 µM (inactive) | > 100 µM (inactive) | > 100 µM (inactive) | > 100 µM (inactive) | > 100 µM (inactive) | > 100 µM (inactive) | > 100 µM (inactive) | – | > 100 µM (inactive) | > 100 µM (inactive)
C=CC1C(OC2OC(CO)C(O)C(O)C2O)OC=C(C(=O)OC)C1CC=O (stereo not given) | > 100 µM (inactive) | > 100 | – | > 100 µM (inactive) | > 100 µM (inactive) | – | > 100 µM (inactive) | 81.8 µM (inactive) | > 100 µM (inactive) | > 100 µM (inactive) | > 100 µM (inactive) | > 100 µM (inactive) | – | > 100 µM (inactive) | > 100 µM (inactive) | – | –
Cc1nc2c(o1)/C(=N\c1ccccc1)c1ccccc1C2=O | – | 8.11 | 3.67 µM (inactive) | 11.5 µM (inactive) | 10.1 µM (inactive) | 12.6 µM (inactive) | 16.5 µM (inactive) | 10.7 µM (inactive) | – | 13.5 µM (inactive) | 5.16 µM (inactive) | 3.3 µM (inactive) | 5.97 µM (inactive) | 3.32 µM (inactive) | 15.8 µM (inactive) | 18.6 µM (inactive) | 35.1 µM (inactive)
CCCCCCCCOCC(COC(=O)CCCCCCC)OC(=O)CCCCCCC (stereo not given) | > 100 µM (inactive) | > 100 | > 100 µM (inactive) | > 100 µM (inactive) | > 100 µM (inactive) | > 100 µM (inactive) | > 100 µM (inactive) | > 100 µM (inactive) | > 100 µM (inactive) | > 100 µM (inactive) | – | > 100 µM (inactive) | > 100 µM (inactive) | > 100 µM (inactive) | > 100 µM (inactive) | > 100 µM (inactive) | > 100 µM (inactive)
CC1=CCC(O)C=CC(C)C(O)C(C)C=C(C)C(=O)c2c(O)c(C)cc3c2C(=O)C(N)=C(NC(=O)/C=C\C=C/C=CC(C)C(O)CC1=O)C3=O (stereo not given) | > 100 µM (inactive) | > 100 | > 100 µM (inactive) | > 100 µM (inactive) | > 100 µM (inactive) | – | > 100 µM (inactive) | > 100 µM (inactive) | > 100 µM (inactive) | > 100 µM (inactive) | > 100 µM (inactive) | 0.292 µM (active) | > 100 µM (inactive) | > 100 µM (inactive) | 37.1 µM (inactive) | > 100 µM (inactive) | > 100 µM (inactive)
